What was measured:
Assay in all cases: relative viability (nuclei count vs DMSO), 5 days (fraction); higher = more cells survive
ABC-1 = system: ABC-1
How it was run: (§1)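 Nuclei were stained with Hoechst during a one-step fixation (final 0.05% Triton X-100, 1% formaldehyde, 1 ug/ml Hoechst) carried out 5 days after dosing, then counted on 4× images. The cells, lung cancer lines in 1536-well plates, had been dosed by pin tool the day after seeding with one drug alone or a fixed anchor-drug dose plus five library-drug doses (not always all listed) in √10 steps. Relative viability is the nuclei count in treated wells divided by that in vehicle wells, and each value is the median of duplicate plates.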

COR-L23 = system: COR-L23
How it was run: as §1

EMC-BAC-2 = system: EMC-BAC-2
How it was run: as §1

HARA = system: HARA
How it was run: as §1

HCC-15 = system: HCC-15
How it was run: as §1

HCC-366 = system: HCC-366
How it was run: as §1

HCC-78 = system: HCC-78
How it was run: as §1

HOP-62 = system: HOP-62
How it was run: as §1

LC-2-ad = system: LC-2-ad
How it was run: as §1

NCI-H1395 = system: NCI-H1395
How it was run: as §1

NCI-H1793 = system: NCI-H1793
How it was run: as §1

NCI-H1944 = system: NCI-H1944
How it was run: as §1

NCI-H1993 = system: NCI-H1993
How it was run: as §1

NCI-H2023 = system: NCI-H2023
How it was run: as §1

NCI-H2126 = system: NCI-H2126
How it was run: as §1

NCI-H2228 = system: NCI-H2228
How it was run: as §1

NCI-H23 = system: NCI-H23
How it was run: as §1

NCI-H2405 = system: NCI-H2405
How it was run: as §1

NCI-H358 = system: NCI-H358
How it was run: as §1

NCI-H838 = system: NCI-H838
How it was run: as §1

SK-LU-1 = system: SK-LU-1
How it was run: as §1

## O=c1cc(N2CCOCC2)oc2c(-c3cccc4c3sc3ccccc34)cccc12 + C[C@]1(O)C[C@@H](c2nc(-c3ccc4ccc(-c5ccccc5)nc4c3)c3c(N)nccn32)C1 [Linsitinib] (partner 1 µM)
ABC-1; first compound 0.01 µM
  relative viability: 0.89
ABC-1; first compound 0.03162 µM
  relative viability: 0.717
ABC-1; first compound 0.1 µM
  relative viability: 0.745
ABC-1; first compound 0.3162 µM
  relative viability: 0.618
ABC-1; first compound 1 µM
  relative viability: 0.586
COR-L23; first compound 0.01 µM
  relative viability: 0.891
COR-L23; first compound 0.03162 µM
  relative viability: 0.877
COR-L23; first compound 0.1 µM
  relative viability: 1
COR-L23; first compound 0.3162 µM
  relative viability: 0.923
COR-L23; first compound 1 µM
  relative viability: 0.882
EMC-BAC-2; first compound 0.01 µM
  relative viability: 0.822
EMC-BAC-2; first compound 0.03162 µM
  relative viability: 0.867
EMC-BAC-2; first compound 0.1 µM
  relative viability: 0.813
EMC-BAC-2; first compound 0.3162 µM
  relative viability: 0.773
EMC-BAC-2; first compound 1 µM
  relative viability: 0.806
HARA; first compound 0.01 µM
  relative viability: 0.996
HARA; first compound 0.03162 µM
  relative viability: 0.933
HARA; first compound 0.1 µM
  relative viability: 1.03
HARA; first compound 0.3162 µM
  relative viability: 1.17
HARA; first compound 1 µM
  relative viability: 0.926
HCC-15; first compound 0.01 µM
  relative viability: 0.786
HCC-15; first compound 0.03162 µM
  relative viability: 0.869
HCC-15; first compound 0.1 µM
  relative viability: 0.936
HCC-15; first compound 0.3162 µM
  relative viability: 0.902
HCC-15; first compound 1 µM
  relative viability: 0.847
HCC-366; first compound 0.01 µM
  relative viability: 0.671
HCC-366; first compound 0.03162 µM
  relative viability: 0.656
HCC-366; first compound 0.1 µM
  relative viability: 0.797
HCC-366; first compound 0.3162 µM
  relative viability: 0.662
HCC-366; first compound 1 µM
  relative viability: 0.625
HCC-78; first compound 0.01 µM
  relative viability: 0.542
HCC-78; first compound 0.03162 µM
  relative viability: 0.525
HCC-78; first compound 0.1 µM
  relative viability: 0.559
HCC-78; first compound 0.3162 µM
  relative viability: 0.51
HCC-78; first compound 1 µM
  relative viability: 0.53
HOP-62; first compound 0.01 µM
  relative viability: 0.991
HOP-62; first compound 0.03162 µM
  relative viability: 1.12
HOP-62; first compound 0.1 µM
  relative viability: 0.909
HOP-62; first compound 0.3162 µM
  relative viability: 0.933
HOP-62; first compound 1 µM
  relative viability: 0.989
LC-2-ad; first compound 0.01 µM
  relative viability: 0.975
LC-2-ad; first compound 0.1 µM
  relative viability: 0.801
LC-2-ad; first compound 0.3162 µM
  relative viability: 0.714
LC-2-ad; first compound 1 µM
  relative viability: 0.781
NCI-H1395; first compound 0.01 µM
  relative viability: 1.21
NCI-H1395; first compound 0.03162 µM
  relative viability: 1.11
NCI-H1395; first compound 0.1 µM
  relative viability: 1.03
NCI-H1395; first compound 0.3162 µM
  relative viability: 1.12
NCI-H1395; first compound 1 µM
  relative viability: 1.2
NCI-H1793; first compound 0.01 µM
  relative viability: 0.809
NCI-H1793; first compound 0.03162 µM
  relative viability: 0.872
NCI-H1793; first compound 0.1 µM
  relative viability: 0.517
NCI-H1793; first compound 0.3162 µM
  relative viability: 0.813
NCI-H1793; first compound 1 µM
  relative viability: 0.68
NCI-H1944; first compound 0.01 µM
  relative viability: 1.16
NCI-H1944; first compound 0.03162 µM
  relative viability: 1.19
NCI-H1944; first compound 0.1 µM
  relative viability: 1.19
NCI-H1944; first compound 0.3162 µM
  relative viability: 1.33
NCI-H1944; first compound 1 µM
  relative viability: 1.16
NCI-H1993; first compound 0.01 µM
  relative viability: 0.73
NCI-H1993; first compound 0.03162 µM
  relative viability: 0.785
NCI-H1993; first compound 0.1 µM
  relative viability: 0.687
NCI-H1993; first compound 0.3162 µM
  relative viability: 0.79
NCI-H1993; first compound 1 µM
  relative viability: 0.531
NCI-H2023; first compound 0.01 µM
  relative viability: 0.735
NCI-H2023; first compound 0.03162 µM
  relative viability: 0.66
NCI-H2023; first compound 0.1 µM
  relative viability: 0.603
NCI-H2023; first compound 0.3162 µM
  relative viability: 0.564
NCI-H2023; first compound 1 µM
  relative viability: 0.557
NCI-H2126; first compound 0.01 µM
  relative viability: 0.698
NCI-H2126; first compound 0.03162 µM
  relative viability: 0.664
NCI-H2126; first compound 0.1 µM
  relative viability: 0.691
NCI-H2126; first compound 0.3162 µM
  relative viability: 0.702
NCI-H2126; first compound 1 µM
  relative viability: 0.725
NCI-H2228; first compound 0.03162 µM
  relative viability: 0.571
NCI-H2228; first compound 0.1 µM
  relative viability: 0.539
NCI-H2228; first compound 0.3162 µM
  relative viability: 0.904
NCI-H2228; first compound 1 µM
  relative viability: 0.74
NCI-H23; first compound 0.01 µM
  relative viability: 0.623
NCI-H23; first compound 0.03162 µM
  relative viability: 0.641
NCI-H23; first compound 0.3162 µM
  relative viability: 0.663
NCI-H23; first compound 1 µM
  relative viability: 0.476
NCI-H2405; first compound 0.01 µM
  relative viability: 0.972
NCI-H2405; first compound 0.03162 µM
  relative viability: 1.01
NCI-H2405; first compound 0.1 µM
  relative viability: 1.01
NCI-H2405; first compound 0.3162 µM
  relative viability: 0.924
NCI-H2405; first compound 1 µM
  relative viability: 0.955
NCI-H358; first compound 0.01 µM
  relative viability: 0.631
NCI-H358; first compound 0.03162 µM
  relative viability: 0.781
NCI-H358; first compound 0.1 µM
  relative viability: 0.731
NCI-H358; first compound 0.3162 µM
  relative viability: 0.812
NCI-H358; first compound 1 µM
  relative viability: 0.736
NCI-H838; first compound 0.01 µM
  relative viability: 1.05
NCI-H838; first compound 0.03162 µM
  relative viability: 1.03
NCI-H838; first compound 0.1 µM
  relative viability: 0.951
NCI-H838; first compound 0.3162 µM
  relative viability: 0.931
NCI-H838; first compound 1 µM
  relative viability: 0.916
SK-LU-1; first compound 0.03162 µM
  relative viability: 1.25
SK-LU-1; first compound 0.1 µM
  relative viability: 1.12
SK-LU-1; first compound 0.3162 µM
  relative viability: 1.19
SK-LU-1; first compound 1 µM
  relative viability: 0.969
